Test results reported in article PMC7395068, “The evolution of strategies to minimise the risk of human drug-induced liver injury (DILI) in drug discovery and development” (Archives of Toxicology, 2020).
Where two headings read alike, the source gives them in different places.

Columns and labels:
human hepatocytes = settings: cited from earlier work
PHH [1] = settings: cited from earlier work
[2] = test system: isolated mouse liver mitochondria; settings: In vitro Assay; ref Porceddu 2012; cited from earlier work
PHH [3] = settings: In vitro Assay; ref Albrecht 2019; cited from earlier work
hLiMTs [4] = settings: cited from earlier work
[5] = test system: primary human hepatocytes, NIH3T3 fibroblasts, BSEP, CYP3A4; settings: cited from earlier work
PHH spheroids = settings: In vitro Assay; ref Vorrink 2018; cited from earlier work
[6] = Plasma free fraction (fu) and unbound Cmax (Cmax,u); type: in vitro ADME, human; settings: unbound plasma Cmax
Experimental: The prediction of DILI severity was evaluated further using the 3D combined HCI assays using plasma-free fraction. The majority of fu values were obtained from literature, when unavailable in-house prediction was utilised. Unbound plasma Cmax concentrations (Cmax,u) were derived by multiplying total plasma Cmax with the corresponding free fraction (fu) for each compound.

[7] = test system: THLE or HepG2 cells, isolated mitochondria, BSEP; settings: cited from earlier work
[8] = test system: HepG2 cells, primary human hepatocytes; settings: In vitro Assay; ref Garside 2014; cited from earlier work
[9] = cited from earlier work
hLiMTs [10] = experiment: Combined HCI (HCS) and cellular ATP 3D assay in hLiMTs; settings: for AC50 / minimal effective concentration: Homo sapiens
[11] = test system: THLE-Null and THLE-3A4 cells; settings: In vitro Assay; ref Gustafsson 2014; cited from earlier work
rBsep = settings: In vitro Assay; ref Dawson 2012; cited from earlier work
[12] = plasma free fraction; cited from earlier work
[13] = read-out: Human plasma Cmax; total plasma Cmax.tot, median of 9 literature references; cited from earlier work
HepG2 cells [14] = settings: cited from earlier work
[15] = test system: HepG2 C3A spheroid, BSEP, Glu/Gal in HepG2 cells, bioactivation; settings: cited from earlier work
[16] = cited from earlier work; remark: listed apart in the source
HepaRG spheroids = experiment: Combined HCI (HCS) and cellular ATP 3D assay in HepaRG spheroids; settings: for AC50 / minimal effective concentration: Homo sapiens
HepG2 = test system: HepG2; design: method as in Albrecht 2019; settings: In vitro Assay; ref Albrecht 2019; cited from earlier work
HepG2 cells [17] = settings: cited from earlier work; remark: listed apart in the source
[18] = In vitro Assay, ref Proctor 2017
[19] = In vitro Assay, ref Schadt 2015
[20] = Modeled in vitro assays (cytotoxicity, mitochondrial dysfunction, BSEP), ref Aleo et al. 2019
[21] = Microtissue model structural based (HCI), combined HCS and ATP, MEC < 25 × Cmax.tot cut-off
[22] = In vitro Assay, ref Persson 2013

Cc1c(C)c2c(c(C)c1O)CCC(C)(COc1ccc(CC3SC(=O)NC3=O)cc1)O2 (stereo not drawn) [troglitazone, reference compound]
+VE (Rule of Two hybrid HRM Score ≥3): Rule of Two hybrid HRM Score ≥3, Aleo (2019) [7, 20]
74 µM: minimal effective concentration (hLiMTs [10]; read-out: ATP endpoint MEC)
25 µM: minimal effective concentration (HepaRG spheroids; HepaRG, read-out: ATP endpoint MEC)
+VE (IC20 < 20 × Cmax.tot cut-off): hLiMTs ATP <20 x Cmax (PHH spheroids)
+VE (Partition Hybrid HRM Score ≥4): Partition Hybrid HRM Score ≥4, Aleo (2019) [7, 20]
+VE (Partition Hybrid HRM Score ≥8): Partition Hybrid HRM Score ≥8, Aleo (2019) [7, 20]
+VE: Structural based (HCI) (human hepatocytes; In vitro Assay, ref Xu 2008) | DILI in vitro assay prediction, Xu (2008) (human hepatocytes; Structural based (HCI), human hepatocytes, ref Xu et al. 2008) | in vitro data EC2<=1x Cmax [2] | in vitro data EC20<=2uM [2] | Cytotoxicity PHH 48 hrs (PHH [3]) | DILI in vitro assay prediction, Schadt (2015) ([5]; BSEP & Metabolism based, ref Schadt et al. 2015) | Cellular toxicity (3T3 cells) [5, 19] | Combined Assay [5, 19] | GSH adduct HML [5, 19] | Hepatocyte cellular toxicity [5, 19] | TDI CYP3A4 [5, 19] | hBSEP inhibition [5, 19] | Partition Hybrid HRM Score ([7]; In vitro Assay, ref Aleo 2019) | Ro2 Hybrid HRM Score ([7]; In vitro Assay, ref Aleo 2019) | Cluster 1-6 +VE Assay [8] | DILI +VE (5-8), DILI -VE (-4) ([9]; ref Chen 2016) | THLE-Null [11] | Inhibition of rBsep cutoff<1& cmax u>.2 (rBsep) | Inhibition of rBsep cutoff<3 (rBsep) | Structural based (HCI) (HepG2 cells [14]; In vitro Assay, ref Tolosa 2012) | DILI in vitro assay prediction, Tolosa (2012) (HepG2 cells [14]; Structural based (HCI), HepG2, ref Tolosa et al. 2012) | Bayesian Machine Learning DILI prediction, Williams (2019) ([15]; Bayesian modeling, ref Williams et al. 2019) | Bayesian Machine Learning ([15]; In vitro Assay, ref Williams 2019) | In vivo DILI ([16]; […]) | In vivo DILI ([16]; ref Albrecht 2019) | In vivo DILI ([16]; ref Aleo 2019) | In vivo DILI ([16]; ref Dawson 2012) | In vivo DILI ([16]; ref Garside 2014) | In vivo DILI ([16]; ref Gustafsson 2014) | In vivo DILI ([16]; ref Persson 2013) | In vivo DILI ([16]; ref Porceddu 2012) | In vivo DILI ([16]; ref Proctor 2017) | In vivo DILI ([16]; ref Schadt 2015) | In vivo DILI ([16]; ref Tolosa 2012) | In vivo DILI ([16]; ref Vorrink 2018) | In vivo DILI ([16]; ref Williams 2019) | In vivo DILI ([16]; ref Xu 2008) | Cytotoxicity HepG2 48 hrs (HepG2) | Cluser analysis (HepG2 cells [17]; [22]) | Structural based (HCI) (HepG2 cells [17]; [22]) | DILI in vitro assay prediction, Persson (2013) (HepG2 cells [17]; Structural based (HCI), HepG2, ref Persson et al. 2013)
33 µM: AC50 (HepaRG spheroids; HepaRG, read-out: HCS endpoint AC50)
0.010: fu [12]
28.8 µM: AC50 (HepaRG spheroids; HepaRG, read-out: ATP endpoint AC50)
-VE: PHH/100xCmax, Proctor (2017) (PHH [1]; 2D PHH, ATP, IC50 < 100 × Cmax.tot, ref Proctor et al. 2017) | PHH/100uM, Proctor (2017) (PHH [1]; 2D PHH, ATP, IC50 threshold 100 µM, ref Proctor et al. 2017) | PHH ATP <100uM (PHH [1]; [18]) | MitoTox 3T3 [5, 19] | THLE-Null/3A4 [11]
+ve: hLiMTs <25x Avg Cmax ATP (hLiMTs [10]; hLiMTs, ATP endpoint, cut-off <25x Avg Cmax) | hLiMTs <25x Avg Cmax HCS (hLiMTs [10]; hLiMTs, HCS endpoints, cut-off <25x Avg Cmax) | hLiMTs <25x Avg Cmax All (hLiMTs [10]; hLiMTs, all endpoints (ATP and HCS), cut-off <25x Avg Cmax) | hLiMTs Cmax max All (hLiMTs [10]; hLiMTs, all endpoints, Cmax max used) | hLiMTs Cmax min All (hLiMTs [10]; hLiMTs, all endpoints, Cmax min used) | HepaRG <25x Avg Cmax ATP (HepaRG spheroids; HepaRG, ATP endpoint, cut-off <25x Avg Cmax) | HepaRG <25x Avg Cmax HCS (HepaRG spheroids; HepaRG, HCS endpoints, cut-off <25x Avg Cmax) | HepaRG <25x Avg Cmax All (HepaRG spheroids; HepaRG, all endpoints (ATP and HCS), cut-off <25x Avg Cmax) | HepaRG Cmax max All (HepaRG spheroids; HepaRG, all endpoints, Cmax max used) | HepaRG Cmax min All (HepaRG spheroids; HepaRG, all endpoints, Cmax min used)
67.6 µM: minimal effective concentration (hLiMTs [10]; read-out: HCS endpoint MEC)
22 µM: minimal effective concentration (HepaRG spheroids; HepaRG, read-out: HCS endpoint MEC)
+VE (Rule of Two hybrid HRM Score ≥8): Rule of Two hybrid HRM Score ≥8, Aleo (2019) [7, 20]
73.6 µM: AC50 (hLiMTs [10]; read-out: HCS endpoint AC50)
-ve: hLiMTs <100x Avg Cmaxu ATP (hLiMTs [10]; hLiMTs, ATP endpoint, cut-off <100x Avg Cmaxu) | hLiMTs <100x Avg Cmaxu HCS (hLiMTs [10]; hLiMTs, HCS endpoints, cut-off <100x Avg Cmaxu) | hLiMTs <10 uM All (hLiMTs [10]; hLiMTs, all endpoints, cut-off <10 uM) | hLiMTs <100x Avg Cmaxu All (hLiMTs [10]; hLiMTs, all endpoints, cut-off <100x Avg Cmaxu) | HepaRG <100x Avg Cmaxu ATP (HepaRG spheroids; HepaRG, ATP endpoint, cut-off <100x Avg Cmaxu) | HepaRG <100x Avg Cmaxu HCS (HepaRG spheroids; HepaRG, HCS endpoints, cut-off <100x Avg Cmaxu) | HepaRG <10 uM All (HepaRG spheroids; HepaRG, all endpoints, cut-off <10 uM) | HepaRG <100x Avg Cmaxu All (HepaRG spheroids; HepaRG, all endpoints, cut-off <100x Avg Cmaxu)
3: Assigned DILI category ([16]; Chen et al. 2016 or literature alignment, ref Chen et al. 2016)
+VE (IC50 threshold of 100 µM): hLiMTs ATP <100uM (hLiMTs [4]; [18]) | hLiMTs/100uM, Proctor (2017) (hLiMTs [4]; hLiMTs, ATP, IC50 threshold 100 µM, ref Proctor et al. 2017)
+VE (MEC < 25 × Cmax.tot cut-off): DILI prediction hLiMTs (HCS-MEC) (hLiMTs [10]; [21]) | DILI prediction HepaRG spheroids (HCS-MEC) (HepaRG spheroids; [21])
6.39 µM: Cmax [13]
vMost-DILI-Concern: DILI severity category ([9]; ref Chen 2016)
Most: DILI severity category (Chen et al. [2016]) ([9]; LTKB DILIrank category, ref Chen et al. 2016) | DILI severity category (Chen 2016) ([9]; human DILI classification, LTKB DILIrank, ref Chen et al. 2016) | DILI severity category ([9]; human DILI severity, ref Chen et al.)
0.064 µM: Human plasma Cmax,u [6]
89.5 µM: AC50 (hLiMTs [10]; read-out: ATP endpoint AC50)
+VE (IC50 < 100 × Cmax.tot): hLiMTs/100xCmax, Proctor (2017) (hLiMTs [4]; hLiMTs, ATP, IC50 < 100 × Cmax.tot, ref Proctor et al. 2017)
